Earlier results as cited in patent EP1269978A2, “Use of bis-resorcinyltriazine derivatives in cosmetic or dermatological preparations” (Beiersdorf AG, priority 2001, dated 2003).

Details: n-Octanol / Wasser

CC1=C(/C=C/C(C)=C/C=C/C(C)=C/CO)C(C)(C)CCC1 [Retinol]
log P-Wert: ~7
